Results reported in the supplement of paper PMC10307832.

Columns and labels:
Assay in all cases: relative viability (nuclei count vs DMSO), 5 days (fraction); higher = more cells survive
[1] = compound: CC1=CC=C(C=C1)C(=O)CN2C3=C(CCCC3)SC2=N [Pifithrin_alpha] + C[C@@H](Oc1cc(-c2cnn(C3CCNCC3)c2)cnc1N)c1c(Cl)ccc(F)c1Cl [Crizotinib] (partner 1 µM)
In short: (§1)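 For relative viability, nuclei counts in treated wells were divided by those in vehicle wells. Lung cancer cell lines had been pin-tool dosed in 1536-well plates the day after seeding and cultured for 5 days, then fixed and stained in one step (final 0.05% Triton X-100, 1% formaldehyde, 1 ug/ml Hoechst) and imaged at 4×. Doses were one drug alone or a fixed anchor-drug dose plus five library-drug doses (not always all listed) in √10 steps, and values are duplicate-plate medians.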

[2] = compound: CC1=CC=C(C=C1)C(=O)CN2C3=C(CCCC3)SC2=N [Pifithrin_alpha] + C[C@]1(O)C[C@@H](c2nc(-c3ccc4ccc(-c5ccccc5)nc4c3)c3c(N)nccn32)C1 [Linsitinib] (partner 1 µM)
In short: as §1

[3] = compound: CC1=CC=C(C=C1)C(=O)CN2C3=C(CCCC3)SC2=N [Pifithrin_alpha] + Nc1ncn([C@H]2C[C@H](O)[C@@H](CO)O2)c(=O)n1 [Decitabine] (partner 2 µM)
In short: as §1

Bemcentinib + Bortezomib = compound: Nc1nc(Nc2ccc3c(c2)CC[C@@H](N2CCCC2)CC3)nn1-c1cc2c(nn1)-c1ccccc1CCC2 [Bemcentinib] + CC(C)C[C@H](NC(=O)[C@H](Cc1ccccc1)NC(=O)c1cnccn1)B(O)O [Bortezomib] (partner 0.002 µM)
In short: as §1

Cell Line	relative viability ([1]; first compound 1 µM)	relative viability ([1]; first compound 3.162 µM)	relative viability ([1]; first compound 10 µM)	relative viability ([1]; first compound 100 µM)	relative viability ([2]; first compound 1 µM)	relative viability ([2]; first compound 3.162 µM)	relative viability ([2]; first compound 10 µM)	relative viability ([2]; first compound 100 µM)	relative viability ([3]; first compound 3.162 µM)	relative viability ([3]; first compound 10 µM)	relative viability ([3]; first compound 31.62 µM)	relative viability ([3]; first compound 100 µM)	relative viability (Bemcentinib + Bortezomib; first compound 0.04 µM)	relative viability (Bemcentinib + Bortezomib; first compound 0.1265 µM)	relative viability (Bemcentinib + Bortezomib; first compound 0.4 µM)	relative viability (Bemcentinib + Bortezomib; first compound 1.265 µM)	relative viability (Bemcentinib + Bortezomib; first compound 4 µM)	relative viability ([3]; first compound 1 µM)	relative viability ([1]; first compound 31.62 µM)	relative viability ([2]; first compound 31.62 µM)
HCC-78	0.319	0.289	0.321	0.321	0.481	0.54	0.513	0.584	0.623	0.673	0.623	0.56	0.485	0.516	0.556	0.541	0.491	–	–	–
HCC-366	0.812	0.517	0.418	0.198	0.512	0.508	0.581	0.469	0.326	0.403	–	0.297	0.985	1.16	1.35	1.1	1.06	0.308	–	–
HCC-827	0.87	0.928	0.875	0.82	0.942	0.96	0.91	0.841	0.357	0.31	0.334	0.345	0.979	1.05	1.16	0.762	1.06	0.136	0.693	0.589
HOP-62	0.97	1.14	0.848	1.04	1.01	0.979	1.18	1.07	0.167	0.232	0.218	0.263	0.753	0.822	–	0.779	0.736	0.233	0.645	0.781
IA-LM	0.652	0.622	0.705	0.433	0.784	0.554	0.272	0.267	–	–	–	–	0.663	0.696	0.799	0.923	0.808	–	0.463	0.501
LC-2-ad	–	0.505	0.425	0.473	0.849	0.846	0.804	0.767	0.73	0.811	0.683	0.675	1	1.01	1.11	0.968	0.982	0.786	–	0.547
LCLC-97TM1	–	0.45	0.277	0.306	–	0.207	0.206	0.225	0.272	0.235	–	0.121	0.571	0.794	0.703	0.602	0.473	–	–	–
LCLC-103H	1.06	1.04	1.01	1.07	0.915	0.954	1.09	1.18	0.7	0.708	0.636	0.65	1.06	1.03	1.09	1.1	1.01	0.659	0.897	0.986
LK-2	0.2	0.22	0.217	0.212	0.608	0.728	0.544	0.646	0.266	0.309	0.224	0.316	–	–	–	–	–	0.202	–	–
NCI-H358	0.616	0.589	0.516	0.625	0.777	0.83	0.671	0.541	0.205	0.19	0.217	0.16	–	–	–	–	–	0.206	0.428	0.547
NCI-H522	–	–	–	–	–	–	–	–	0.722	0.693	0.673	0.579	–	–	–	–	–	0.681	–	–
NCI-H1299	0.997	0.992	1.05	0.897	1.04	1.09	1.01	0.998	–	–	–	–	0.981	1.03	1.03	1.04	1.09	–	0.76	0.813
NCI-H1395	–	–	–	–	–	1.05	1.03	0.974	0.649	0.709	–	0.735	–	–	–	–	–	–	–	0.638
NCI-H1563	0.907	0.846	0.714	0.731	1.17	1.29	1.04	1	–	–	–	–	0.811	0.86	0.859	0.992	0.863	–	0.832	1.06
NCI-H1648	–	–	–	–	–	–	–	–	0.597	0.464	0.406	0.496	–	–	–	–	–	0.478	–	–
NCI-H1650	0.979	0.912	0.936	0.792	–	–	–	–	0.442	0.593	0.32	0.406	0.199	0.209	0.199	0.192	0.225	0.382	0.648	–
NCI-H1703	0.577	0.531	0.803	1.05	0.596	0.6	0.786	0.635	–	–	–	–	0.25	0.237	0.292	0.284	0.29	–	0.455	0.733
NCI-H1793	–	–	–	–	0.896	0.7	0.812	0.964	0.464	0.489	0.323	0.454	–	–	–	–	–	0.442	–	0.787
NCI-H1944	1.13	1.18	0.866	0.958	1.18	1.23	1.11	1.04	0.461	0.39	0.337	0.343	–	–	–	–	–	0.406	–	–
NCI-H2170	1.3	1.32	1.24	1.19	–	–	–	–	0.453	0.476	0.427	0.453	–	–	–	–	–	0.48	0.96	–
NCI-H2228	0.3	0.424	0.432	0.376	1.04	0.606	0.583	0.555	–	–	–	–	–	1.04	1.12	0.93	1.08	–	0.263	0.544
NCI-H2342	–	–	–	–	–	–	–	–	0.779	0.744	0.64	0.678	–	–	–	–	–	0.685	–	–
SK-MES-1	0.934	0.933	0.976	0.765	1	1.01	0.93	0.921	0.424	0.353	0.411	0.352	–	–	–	–	–	0.351	0.683	0.737
SW 900	–	–	–	–	–	–	–	–	0.381	0.423	0.389	0.447	–	–	–	–	–	0.395	–	–
